Results as given in US4317768A, “Dihydropyridine derivatives as stabilizers for vinyl chloride polymers” (priority 1977, dated 1982).

Legend:
[1] = Static thermostability (GARDNER method), rigid PVC sheets, 185° C., 0.3 part stabilizer
Experimental: (§1) This study was carried out according to the GARDNER method, described in British Pat. No. 1,489,685.
(§2) The reference substance was 2-phenyl-indole, a well-known and widely used stabilizer.
(§3) The stabilizer (dihydropyridine or 2-phenyl-indole) and the other usual ingredients were mixed with powdered vinyl resins and the mixtures were calendered at a temperature of 160° C. to give rigid sheets.
(§4) The sheets were then heated in a thermostated oven (185° C. or 210° C.) for different intervals of time until incipient carbonization.
(§5) The coloration of the samples was compared to a standard scale of coloration, known as the GARDNER scale and was expressed in terms of the reference figures of the GARDNER scale.
(§6) This study was carried out with the following resin:
(§7) Polyvinyl chloride resin
(§8) SL 2016 is a solution of zinc-2-ethyl-hexanoate in a mixture of hydrocarbons boiling between 158° C. and 184° C.
A second trial was performed at a temperature of 185° C., with a resin containing 0.3 part of stabilizer, the samples being removed from the oven every 6 minutes over a period of 24 minutes, then every 3 minutes until the 42nd minute (or until carbonization).

[2] = Static thermostability (GARDNER method), rigid PVC sheets, 210° C., 0.3 part stabilizer; details: for thermostabilizing power compared to 2-phenyl-indole, in words: 210° C.; for coloration of the resins, in words: 0 to 3 minutes
Experimental: as §1, §2, §3, §4, §5, §6, §7, §8
The first trial was carried out at 210° C. with a resin containing 0.3 part by weight of stabilizer, the sheets being removed from the oven every three minutes over a period of 21 minutes.

[3] = Static thermostability (GARDNER method), rigid PVC sheets, 185° C., equimolecular quantities; details: 1.55×10^-3 mol
Experimental: as §1, §2, §3, §4, §5, §6, §7, §8
Finally, a trail was performed at 185° C., with resins containing equimolecular quantities of the dihydropyridines or of 2-phenyl-indole, namely 1.55×10^-3 mol. In this case too, the samples were removed from the oven every 6 minutes over a period of 24 minutes and then every 3 minutes until the 42nd minute (or until carbonization).

Compound	coloration, GARDNER scale ([1]; 0 min)	coloration, GARDNER scale ([1]; 6 min)	coloration, GARDNER scale ([1]; 12 min)	coloration, GARDNER scale ([1]; 18 min)	coloration, GARDNER scale ([1]; 24 min)	coloration, GARDNER scale ([1]; 27 min)	coloration, GARDNER scale ([1]; 30 min)	coloration, GARDNER scale ([1]; 33 min)	coloration, GARDNER scale ([1]; 36 min)	coloration, GARDNER scale ([2]; 0 min)	coloration, GARDNER scale ([2]; 3 min)	coloration, GARDNER scale ([2]; 6 min)	coloration, GARDNER scale ([2]; 9 min)	coloration, GARDNER scale ([2]; 12 min)	coloration, GARDNER scale ([2]; 15 min)	coloration, GARDNER scale ([2]; 18 min)	coloration, GARDNER scale ([3]; 0 min)	coloration, GARDNER scale ([3]; 6 min)	coloration, GARDNER scale ([3]; 12 min)	coloration, GARDNER scale ([3]; 18 min)	further results
CC1=C(C(=O)OCCCl)CC(C(=O)OCCCl)=C(C)N1 [Compound 3, 2,6-Dimethyl-3,5-di-(2'-carbochloro-ethoxy)-1,4-dihydroyridine]	1	1	5	8	10	10.5	13	14	18	1	1	3	4	5	10.5	Burnt					coloration, GARDNER scale ([1]; 39 min): 18; coloration, GARDNER scale ([1]; 42 min): Burnt; thermostabilizing power compared to 2-phenyl-indole, in words [2]: greatly superior to 2-phenyl-indole
COc1ccc(COC(=O)C2=C(C)NC(C)=C(C(=O)OCc3ccc(OC)cc3)C2)cc1 [Compound 4]	1	1	2	8	13	14	17	18	Burnt	1	1	2	4	6	11	Burnt	1	1	1	4	coloration of the resins, in words [2]: considerably less; coloration, GARDNER scale ([3]; 24 min): 6; coloration, GARDNER scale ([3]; 27 min): 8; coloration, GARDNER scale ([3]; 30 min): 11; coloration, GARDNER scale ([3]; 33 min): 15; coloration, GARDNER scale ([3]; 36 min): Burnt
CC1=C(C(=O)OCc2ccccc2Cl)CC(C(=O)OCc2ccccc2Cl)=C(C)N1 [Compound 5, 2,6-Dimethyl-3,5-di-(2'-carbochloro-benzyloxy)-1,4-dihydropyridine]	1	1	2	9	11	11	13	14	14	1	1	2	3	6	10.5	Burnt	1	1	1	5	coloration, GARDNER scale ([1]; 39 min): Burnt; coloration of the resins, in words [2]: considerably less; coloration, GARDNER scale ([3]; 24 min): 10; coloration, GARDNER scale ([3]; 27 min): 11; coloration, GARDNER scale ([3]; 30 min): 13; coloration, GARDNER scale ([3]; 33 min): 14; coloration, GARDNER scale ([3]; 36 min): 15; coloration, GARDNER scale ([3]; 39 min): Burnt
CC1=C(C(=O)OCc2ccccc2C)CC(C(=O)OCc2ccccc2C)=C(C)N1 [Compound 6, 2,6-Dimethyl-3,5-di-(2'-carbomethyl-benzyloxy)-1,4-dihydropyridine]	1	1	2	9	11	11	13	14	Burnt	1	1	1.5	3	4	7	Burnt	1	1	2	4	coloration, GARDNER scale ([3]; 24 min): 10; coloration, GARDNER scale ([3]; 27 min): 13; coloration, GARDNER scale ([3]; 30 min): B.
CC1=C(C(=O)OCc2ccc(Cl)cc2)CC(C(=O)OCc2ccc(Cl)cc2)=C(C)N1 [Compound 7, 2,6-Dimethyl-3,5-di-(4'carbochloro-benzyloxy)-1,4-dihydropyridine]										1	1	2	4	10.5	14	Burnt					
CCCCCCC1C(C(=O)OC)=C(C)NC(C)=C1C(=O)OC [Compound 8, 2,6-Dimethyl-3,5-dicarbomethoxy-4-hexyl-1,4-dihydropyridine]										1	2	3	6	8	10.5	11					coloration, GARDNER scale ([2]; 21 min): Burnt
CCOC(=O)C1=C(Cc2ccccc2)NC(Cc2ccccc2)=C(C(=O)OCC)C1 [Compound 16, 2,6-Dibenzyl-3,5-dicarbethoxy-1,4-dihydropyridine]										1	1	3	4	11	18	Burnt					thermostabilizing power compared to 2-phenyl-indole, in words [2]: greatly superior to 2-phenyl-indole
